We go through 17 molecules from ChEMBL document CHEMBL3390834, “Development of second generation epigenetic agents” (Medchemcomm, 2012).

As a reminder, the IC50 is the midpoint of a concentration-inhibition curve. For orientation: inhibition means the change of the read-out against control, counted positive when it falls. What is called Kd is the free concentration of one partner at which half of the binding sites on the other are occupied at equilibrium, for simple one-to-one binding. A word on the Ki: it is the equilibrium dissociation constant of an inhibitor or competing ligand from its target. Low values mean a stronger hold on the target, high ones a looser hold on the target. As usually defined, the half-life is the time needed for the level to fall by half in the phase considered. The low end stands for fast loss, the high end for slow loss.

The target of data set [1] is Histone acetyltransferase KAT2B (Homo sapiens, UniProt Q92831). Nature of the data set: Inhibition of FLAG epitope-tagged recombinant human PCAF expressed in baculovirus infected insect Sf21 cells using [3H]acetyl-CoA as substrate preincubated for 10 mins followed by substrate addition measured after 10 mins by liquid scintillation counting analysis.
Data set [2] concerns the target T1, Histone acetyltransferase p300 (Homo sapiens, UniProt Q09472). Nature of the data set: biochemical.
Description: (§1) Inhibition of His6-tagged recombinant full length p300 (unknown origin) expressed in baculovirus infected insect Sf21 cells using [3H]acetyl-CoA as substrate preincubated for 10 mins followed by substrate addition measured after 10 mins by liquid scintillation counting analysis
The target in data set [3] is T2, Lysine-specific histone demethylase 1A (Homo sapiens, UniProt O60341). In words: Inhibition of N-terminal His-6-tagged full length human LSD-1 expressed in Escherichia coli BL21 (DE3) using H3K4me2 peptide as substrate at 1 uM by Western blotting analysis relative to control.
In data set [4] the target is Lysine-specific demethylase 4A (Homo sapiens, UniProt O75164). In words: Inhibition of JMJD2A (unknown origin) using ARK(me3)STGGK peptide as substrate preincubated for 1 to 30 mins followed by substrate addition by MALDI-TOF/MS analysis.
Data set [5] concerns the target T1, Histone acetyltransferase p300.
Description: as §1
The subject of data set [6] is Saccharomyces cerevisiae. Nature of the data set: Selectivity for yeast Sir2p over yeast Hst1p.
Data set [7] addresses T1, Histone acetyltransferase p300. In words: Inhibition of recombinant full length p300 (unknown origin) expressed in baculovirus infected insect Sf21 cells using [3H]acetyl-CoA as substrate.
Data set [8] has the same target. In words: Binding affinity to p300 (unknown origin) by ITC analysis.
The target of data set [9] is Histone deacetylase 1 (Homo sapiens, UniProt Q13547).
Chain of Histone deacetylase 1 (Q13547 whole entry): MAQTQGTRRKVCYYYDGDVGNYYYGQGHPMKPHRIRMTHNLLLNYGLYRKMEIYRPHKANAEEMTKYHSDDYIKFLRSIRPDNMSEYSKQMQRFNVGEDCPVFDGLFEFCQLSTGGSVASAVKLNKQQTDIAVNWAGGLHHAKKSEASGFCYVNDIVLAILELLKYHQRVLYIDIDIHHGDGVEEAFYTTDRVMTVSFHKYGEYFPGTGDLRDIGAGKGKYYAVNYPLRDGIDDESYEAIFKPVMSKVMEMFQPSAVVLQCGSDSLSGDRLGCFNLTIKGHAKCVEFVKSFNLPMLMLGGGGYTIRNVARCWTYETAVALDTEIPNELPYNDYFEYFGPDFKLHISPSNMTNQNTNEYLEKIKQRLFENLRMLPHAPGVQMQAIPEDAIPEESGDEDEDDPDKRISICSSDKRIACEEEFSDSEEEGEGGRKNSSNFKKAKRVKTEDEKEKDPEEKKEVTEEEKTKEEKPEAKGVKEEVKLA
Description: Inhibition of HDAC-1 (unknown origin) using (FAM)-labeled acetylated peptide as substrate after 17 hrs by fluorescence assay
Data set [10] addresses T3, Lysine-specific demethylase 4E (Homo sapiens, UniProt B2RXH2).
T3 sequence (B2RXH2 whole entry): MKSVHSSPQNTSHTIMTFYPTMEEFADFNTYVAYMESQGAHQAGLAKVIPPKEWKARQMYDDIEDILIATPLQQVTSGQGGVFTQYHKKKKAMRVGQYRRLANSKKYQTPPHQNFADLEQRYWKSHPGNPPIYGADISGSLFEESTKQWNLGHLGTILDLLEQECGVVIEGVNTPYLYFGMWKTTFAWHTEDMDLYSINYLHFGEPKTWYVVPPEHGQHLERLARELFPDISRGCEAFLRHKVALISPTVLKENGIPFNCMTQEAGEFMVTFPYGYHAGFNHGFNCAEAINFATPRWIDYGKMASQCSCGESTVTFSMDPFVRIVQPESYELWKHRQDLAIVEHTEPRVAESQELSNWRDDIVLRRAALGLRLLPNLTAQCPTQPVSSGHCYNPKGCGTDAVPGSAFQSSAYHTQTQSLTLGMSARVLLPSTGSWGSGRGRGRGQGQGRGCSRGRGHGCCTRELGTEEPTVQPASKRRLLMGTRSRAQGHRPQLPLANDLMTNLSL
Nature of the data set: Binding affinity to JMJD2E (unknown origin).

In data set [11] the target is Lysine-specific demethylase 2A (Homo sapiens, UniProt Q9Y2K7). Nature of the data set: Inhibition of FBXL11 (unknown origin) expressed in HEK293 cells. Format: cell-based.
Chain of Lysine-specific demethylase 2A (Q9Y2K7 whole entry): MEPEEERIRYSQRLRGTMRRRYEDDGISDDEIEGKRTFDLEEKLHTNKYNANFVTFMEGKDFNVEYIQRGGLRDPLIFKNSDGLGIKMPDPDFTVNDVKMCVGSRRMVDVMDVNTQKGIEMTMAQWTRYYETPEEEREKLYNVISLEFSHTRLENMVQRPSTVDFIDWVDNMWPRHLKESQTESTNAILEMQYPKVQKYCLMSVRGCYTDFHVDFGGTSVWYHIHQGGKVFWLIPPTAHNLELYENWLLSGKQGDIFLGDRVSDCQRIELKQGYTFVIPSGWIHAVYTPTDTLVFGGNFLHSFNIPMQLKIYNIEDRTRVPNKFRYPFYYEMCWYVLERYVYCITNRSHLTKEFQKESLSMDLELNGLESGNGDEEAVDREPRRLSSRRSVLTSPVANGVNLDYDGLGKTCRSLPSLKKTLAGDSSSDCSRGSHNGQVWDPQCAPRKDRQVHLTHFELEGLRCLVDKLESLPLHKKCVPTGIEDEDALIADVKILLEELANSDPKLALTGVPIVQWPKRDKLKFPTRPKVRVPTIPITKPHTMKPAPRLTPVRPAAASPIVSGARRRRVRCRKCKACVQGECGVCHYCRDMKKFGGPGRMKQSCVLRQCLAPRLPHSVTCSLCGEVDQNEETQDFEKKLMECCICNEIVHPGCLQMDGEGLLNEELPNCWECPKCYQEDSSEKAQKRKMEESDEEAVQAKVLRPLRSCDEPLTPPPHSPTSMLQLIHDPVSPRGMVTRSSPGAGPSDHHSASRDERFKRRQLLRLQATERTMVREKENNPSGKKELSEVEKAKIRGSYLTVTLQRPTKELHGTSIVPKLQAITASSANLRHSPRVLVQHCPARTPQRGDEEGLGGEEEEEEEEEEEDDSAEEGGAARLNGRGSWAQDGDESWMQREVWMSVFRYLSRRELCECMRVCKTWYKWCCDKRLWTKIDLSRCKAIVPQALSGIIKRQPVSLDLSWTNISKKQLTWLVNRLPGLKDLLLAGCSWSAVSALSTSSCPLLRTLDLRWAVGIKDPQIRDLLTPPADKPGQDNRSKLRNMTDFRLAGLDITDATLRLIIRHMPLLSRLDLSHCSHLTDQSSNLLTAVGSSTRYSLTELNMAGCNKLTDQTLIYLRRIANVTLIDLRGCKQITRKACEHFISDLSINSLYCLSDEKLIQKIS
Data set [12] has as its target Egl nine homolog 1 (Homo sapiens, UniProt Q9GZT9). In words: Inhibition of PHD-2 (unknown origin).
Data set [13] deals with T3, Lysine-specific demethylase 4E.
Description: Inhibition of N-terminal His-6-tagged human JMJD2E (1 to 337 residues) expressed in Escherichia coli by MALDI-TOF/MS analysis
The target of data set [14] is T2, Lysine-specific histone demethylase 1A. Nature of the data set: Inhibition of N-terminal His-6-tagged full length human LSD-1 expressed in Escherichia coli BL21 (DE3) using H3K4me2 peptide as substrate by Western blotting analysis.
Data set [15] addresses T1, Histone acetyltransferase p300. In words: Inhibition of p300 (unknown origin).
The nature of data set [16]: Inhibition of DIM-5 (unknown origin). Also on record: […].
In data set [17] the target is Histone-lysine N-methyltransferase SUV39H1 (Homo sapiens, UniProt O43463). Nature of the data set: Inhibition of SUV39H1 (unknown origin) by DELFIA.
Chain of Histone-lysine N-methyltransferase SUV39H1 (O43463 whole entry): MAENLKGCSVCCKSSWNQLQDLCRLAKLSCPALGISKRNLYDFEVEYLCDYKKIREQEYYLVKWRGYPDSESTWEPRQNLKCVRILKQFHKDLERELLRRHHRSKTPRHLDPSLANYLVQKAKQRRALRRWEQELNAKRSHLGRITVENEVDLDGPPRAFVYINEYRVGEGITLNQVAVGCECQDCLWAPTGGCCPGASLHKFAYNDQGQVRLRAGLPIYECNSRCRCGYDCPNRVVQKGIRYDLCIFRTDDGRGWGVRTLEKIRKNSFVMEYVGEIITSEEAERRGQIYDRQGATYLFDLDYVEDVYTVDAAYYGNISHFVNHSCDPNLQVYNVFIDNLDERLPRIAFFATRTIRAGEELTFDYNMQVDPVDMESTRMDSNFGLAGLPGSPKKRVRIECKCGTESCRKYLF
Data set [18] concerns the target Histone-lysine N-methyltransferase EHMT2 (Homo sapiens, UniProt Q96KQ7).
Description: Inhibition of recombinant GST-tagged G9a (685 to 1000 amino acids) (unknown origin) expressed in Escherichia coli BL21 using biotinylated histone H3 peptide as substrate by DELFIA
For data set [19], the target named is T4, Histone-arginine methyltransferase CARM1 (Homo sapiens, UniProt Q86X55).
T4 sequence (Q86X55 whole entry): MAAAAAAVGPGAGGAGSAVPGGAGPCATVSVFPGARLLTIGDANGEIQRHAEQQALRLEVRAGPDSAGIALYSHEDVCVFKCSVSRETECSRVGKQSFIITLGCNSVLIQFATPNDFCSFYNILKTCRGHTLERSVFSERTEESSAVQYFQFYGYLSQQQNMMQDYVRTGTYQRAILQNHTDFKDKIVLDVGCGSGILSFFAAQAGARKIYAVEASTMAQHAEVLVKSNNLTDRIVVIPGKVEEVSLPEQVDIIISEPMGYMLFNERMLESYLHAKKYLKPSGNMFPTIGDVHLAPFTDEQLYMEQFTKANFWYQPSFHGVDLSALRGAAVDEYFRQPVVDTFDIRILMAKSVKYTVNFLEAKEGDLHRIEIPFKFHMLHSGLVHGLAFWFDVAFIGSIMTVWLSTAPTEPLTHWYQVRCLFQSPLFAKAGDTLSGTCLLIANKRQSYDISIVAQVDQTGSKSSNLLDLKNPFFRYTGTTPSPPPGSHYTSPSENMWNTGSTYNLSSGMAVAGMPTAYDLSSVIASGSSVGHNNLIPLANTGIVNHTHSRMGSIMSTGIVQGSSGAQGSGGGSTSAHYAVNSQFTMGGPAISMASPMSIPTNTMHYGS
In words: Inhibition of CARM-1 (unknown origin) using Histone H3 Arg-17 as substrate.

For data set [20], the target named is T5, NAD-dependent protein deacetylase sirtuin-2 (Homo sapiens, UniProt Q8IXJ6).
T5 sequence (Q8IXJ6 whole entry): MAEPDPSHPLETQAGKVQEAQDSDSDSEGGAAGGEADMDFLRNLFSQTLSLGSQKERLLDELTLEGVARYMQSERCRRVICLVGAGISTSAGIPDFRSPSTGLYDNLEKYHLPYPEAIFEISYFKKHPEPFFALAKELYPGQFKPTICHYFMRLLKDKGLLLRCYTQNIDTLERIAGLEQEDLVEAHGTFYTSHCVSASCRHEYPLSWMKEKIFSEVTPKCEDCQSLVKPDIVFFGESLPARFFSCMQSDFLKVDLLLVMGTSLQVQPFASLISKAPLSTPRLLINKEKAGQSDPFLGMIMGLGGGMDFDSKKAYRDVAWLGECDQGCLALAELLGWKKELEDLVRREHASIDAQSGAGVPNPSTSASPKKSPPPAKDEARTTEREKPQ
Nature of the data set: Inhibition of SIRT-2 (unknown origin).

The target in data set [21] is NAD-dependent protein deacetylase sirtuin-1 (Homo sapiens, UniProt Q96EB6). In words: Inhibition of human SIRT-1.
In data set [22] the target is T5, NAD-dependent protein deacetylase sirtuin-2. Nature of the data set: Inhibition of human SIRT-2.
Data set [23] is described as follows: Half life in C57BL/6J mouse at 10 mg/kg, po. Format: ADME, organism-based. More on the design: dose 10 mg/kg, route oral. The following applies: in vivo.

Structures are written as SMILES.

T1 sequence (Q09472 whole entry): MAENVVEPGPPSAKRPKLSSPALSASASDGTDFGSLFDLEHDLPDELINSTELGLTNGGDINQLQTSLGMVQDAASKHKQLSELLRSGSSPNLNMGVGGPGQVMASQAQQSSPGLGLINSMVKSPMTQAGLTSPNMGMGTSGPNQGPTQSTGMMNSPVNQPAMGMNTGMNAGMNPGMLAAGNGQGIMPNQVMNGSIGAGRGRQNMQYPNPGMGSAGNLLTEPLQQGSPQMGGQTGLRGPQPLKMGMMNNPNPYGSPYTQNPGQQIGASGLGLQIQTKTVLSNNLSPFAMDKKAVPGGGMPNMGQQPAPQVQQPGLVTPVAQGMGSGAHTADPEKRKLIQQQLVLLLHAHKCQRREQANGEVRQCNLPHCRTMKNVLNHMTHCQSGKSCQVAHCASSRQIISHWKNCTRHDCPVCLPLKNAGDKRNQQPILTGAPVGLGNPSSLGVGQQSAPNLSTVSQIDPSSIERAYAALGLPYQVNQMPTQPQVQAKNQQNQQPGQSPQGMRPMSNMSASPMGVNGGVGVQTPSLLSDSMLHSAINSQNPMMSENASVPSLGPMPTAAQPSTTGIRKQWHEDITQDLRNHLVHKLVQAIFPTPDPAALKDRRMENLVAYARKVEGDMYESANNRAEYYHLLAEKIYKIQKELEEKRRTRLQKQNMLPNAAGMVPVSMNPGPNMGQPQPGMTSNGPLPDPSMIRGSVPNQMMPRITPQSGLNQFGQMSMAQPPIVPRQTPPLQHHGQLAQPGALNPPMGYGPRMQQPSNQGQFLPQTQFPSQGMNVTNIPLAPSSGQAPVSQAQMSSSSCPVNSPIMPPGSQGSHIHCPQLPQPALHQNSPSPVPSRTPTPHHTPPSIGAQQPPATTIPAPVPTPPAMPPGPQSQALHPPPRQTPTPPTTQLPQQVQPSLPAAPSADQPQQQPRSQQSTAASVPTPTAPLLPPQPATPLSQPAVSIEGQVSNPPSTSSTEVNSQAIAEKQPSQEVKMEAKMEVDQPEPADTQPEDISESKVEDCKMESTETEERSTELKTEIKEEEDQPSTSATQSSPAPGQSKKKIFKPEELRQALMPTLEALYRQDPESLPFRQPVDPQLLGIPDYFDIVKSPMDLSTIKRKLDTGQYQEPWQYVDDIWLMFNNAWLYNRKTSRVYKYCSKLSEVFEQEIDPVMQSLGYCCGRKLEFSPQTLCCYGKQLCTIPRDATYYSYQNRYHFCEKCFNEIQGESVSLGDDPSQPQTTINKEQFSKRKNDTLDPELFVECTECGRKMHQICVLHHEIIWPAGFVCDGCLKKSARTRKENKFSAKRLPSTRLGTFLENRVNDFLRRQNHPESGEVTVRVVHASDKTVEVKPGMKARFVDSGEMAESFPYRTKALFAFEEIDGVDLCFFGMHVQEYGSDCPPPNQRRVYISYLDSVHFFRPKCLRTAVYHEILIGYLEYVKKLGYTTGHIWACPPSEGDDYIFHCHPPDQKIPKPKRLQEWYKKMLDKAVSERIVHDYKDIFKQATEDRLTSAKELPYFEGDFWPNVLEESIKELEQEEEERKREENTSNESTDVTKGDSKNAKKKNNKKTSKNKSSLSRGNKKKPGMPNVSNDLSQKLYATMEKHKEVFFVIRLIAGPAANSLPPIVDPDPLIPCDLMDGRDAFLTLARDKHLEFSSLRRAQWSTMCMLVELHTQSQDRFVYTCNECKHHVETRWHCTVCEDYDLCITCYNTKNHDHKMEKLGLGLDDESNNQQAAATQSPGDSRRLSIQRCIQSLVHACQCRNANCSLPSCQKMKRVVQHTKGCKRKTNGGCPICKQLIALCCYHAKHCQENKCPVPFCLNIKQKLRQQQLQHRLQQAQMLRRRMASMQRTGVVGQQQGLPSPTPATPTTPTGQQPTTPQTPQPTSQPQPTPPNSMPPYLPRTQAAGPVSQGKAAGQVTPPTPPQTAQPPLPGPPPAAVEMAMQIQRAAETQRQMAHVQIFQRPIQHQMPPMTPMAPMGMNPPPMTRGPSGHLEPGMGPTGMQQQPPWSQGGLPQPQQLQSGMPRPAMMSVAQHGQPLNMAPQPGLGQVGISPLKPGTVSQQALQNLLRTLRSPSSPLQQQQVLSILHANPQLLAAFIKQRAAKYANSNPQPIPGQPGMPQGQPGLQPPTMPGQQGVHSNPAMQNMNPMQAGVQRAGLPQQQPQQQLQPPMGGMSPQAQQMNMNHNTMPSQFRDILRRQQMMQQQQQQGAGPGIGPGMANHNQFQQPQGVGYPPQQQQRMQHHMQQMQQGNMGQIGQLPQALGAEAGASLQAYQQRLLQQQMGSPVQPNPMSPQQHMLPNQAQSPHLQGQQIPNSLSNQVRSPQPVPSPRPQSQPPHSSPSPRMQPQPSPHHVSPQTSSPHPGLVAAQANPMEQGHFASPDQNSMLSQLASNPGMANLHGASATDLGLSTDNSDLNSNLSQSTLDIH
Chain of Egl nine homolog 1 (Q9GZT9 whole entry): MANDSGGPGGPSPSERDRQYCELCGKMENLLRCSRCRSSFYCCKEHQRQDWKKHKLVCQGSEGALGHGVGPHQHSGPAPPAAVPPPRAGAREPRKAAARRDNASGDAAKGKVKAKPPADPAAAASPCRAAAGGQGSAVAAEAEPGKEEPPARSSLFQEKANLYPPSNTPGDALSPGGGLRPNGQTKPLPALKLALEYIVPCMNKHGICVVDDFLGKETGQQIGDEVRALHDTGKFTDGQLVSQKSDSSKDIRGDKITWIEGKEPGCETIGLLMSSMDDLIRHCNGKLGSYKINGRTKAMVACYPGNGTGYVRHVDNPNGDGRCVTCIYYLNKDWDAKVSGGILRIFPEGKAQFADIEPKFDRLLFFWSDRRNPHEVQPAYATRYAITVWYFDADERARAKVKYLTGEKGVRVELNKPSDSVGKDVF

With `CCCCCCCCCCCCCCCc1cccc(O)c1C(=O)O` [ANACARDIC ACID], the IC50 in [1] is 5 µM; in data set [2], 8.5 µM.
The molecule `C/N=C(\NC)NCCCNCCCNCCCN/C(=N/C)NC` registered an inhibition in data set [3] above 50%.
Consider `CCNC(=S)SSC(=S)NCC`, for which the IC50 in data set [4] stood at 15.3 µM.
Consider `C=C(C)[C@@H](CC=C(C)C)C[C@@]12C[C@@H](CC=C(C)C)C(C)(C)[C@@](CC=C(C)C)(C(=O)C(C(=O)c3ccc(O)c(O)c3)=C1O)C2=O` [GARCINOL], for which, in data set [5], half-maximal inhibition (IC50) required 7 µM.
`O=C1CCc2c(c(OCc3ccccc3)cc3ccccc23)O1`: in [6], the Selectivity ratio was 13.
For the molecule `CC1=CC(=O)c2c(O)cccc2C1=O` [PLUMBAGIN], the IC50 in data set [7] came out at 2 µM. This molecule showed a Kd in data set [8] of 2 µM.
The molecule `Nc1ccccc1NC(=O)CCCCCCC(=O)Nc1cccc(-c2cn(-c3ccccc3)nn2)c1` returned an IC50 in [9] above 30 µM.
In data set [10], `[N-]=[N+]=Nc1ccc(C(=O)N[C@@H](CCCCNC(=O)COCCOCCNC(=O)CCCC[C@@H]2SC[C@@H]3NC(=O)N[C@@H]32)C(=O)NCCCNC(=O)c2ccc(O)c3ncccc23)cc1` had a Kd of 58.4 µM. Besides, the IC50 in [11] is 9.1 µM; in data set [12] it was 41.8 µM.
In data set [13], `Oc1ccc(C2CNCCc3c2cc(O)c(O)c3Cl)cc1` (stereo not drawn) [FENOLDOPAM] showed an IC50 of 3 µM.
The molecule `CCNCCCCCCCCCCCCCCCCNC/C=C/CNCCCCCCCCCCCCCCCCNCC` returned an IC50 in data set [14] of 5 µM.
In turn, `CC(=O)N[C@@H](CCCCNC(=O)CSCCNC(=O)CCNC(=O)[C@H](O)C(C)(C)COP(=O)(O)OP(=O)(O)OC[C@H]1O[C@@H](n2cnc3c(N)ncnc32)[C@H](O)[C@@H]1OP(=O)(O)O)C(N)=O` came in with a Ki in [15] of 0.019 µM.
Consider `CN1C(=O)[C@@]23C[C@]4([C@]56C[C@@]78SS[C@@](CO)(C(=O)N7[C@H]5Nc5ccccc56)N(C)C8=O)c5ccccc5N[C@@H]4N2C(=O)[C@]1(CO)SS3` [CHAETOCIN], for which the IC50 in [16] came to 3 µM.
Consider `COc1ccc(C(=O)Oc2ccc(CCn3c(NC(=O)c4ccc(C(F)(F)F)cc4)nc4cc(C(=O)O)ccc43)cc2)cc1`, for which the IC50 in [17] was 1.1 µM; in data set [18] it was 4.7 µM.
Molecule `O=c1oc2c(O)c(O)cc3c(=O)oc4c(O)c(O)cc1c4c23` [ELLAGIC ACID] yielded an IC50 in data set [19] of 25 µM.
`NC(=O)c1ccccc1Nc1ccccc1` [ANILINOBENZAMIDE]: in data set [20], the IC50 came to 74 µM.
Regarding `CC(C)=CCC/C(C)=C/C[C@@H]1C[C@@]2(CC=C(C)C)C(=O)[C@](CC=C(C)C)(C(=O)C(C(=O)c3ccc(O)c(O)c3)=C2O)[C@@]1(C)CCC=C(C)C`, the IC50 in data set [21] came to 9 µM; in data set [22], 22 µM.
With `NC(=O)C1CCCc2c1[nH]c1ccc(Cl)cc21` (stereo not drawn), the half-life in data set [23] was 2 h.
